The results in this text go back to patent US20250154525A1, “PLANT VIRUS MOVEMENT PROTEINS AND METHODS OF USING SAME” (Molecular Transfer, Inc., priority 2016, published 2025).

What all share (test): GFP plasmid transfection with DOTMA/DOPE plus plant virus movement protein derived peptides (Example 2)
Holding throughout (type): cell-based

Test [1] concerns Human Primary Fibroblast Cells. Conditions: 42 hours. Here is the method: (§1) Cells were plated to so that on the day of transfection the cells were 70% confluent in 96 well tissue culture plates. A DOMTA/DOPE Lipid solution (1:1 molar ratio) at 2 mg/mL in water were mixed with an equal volume of plant virus movement protein derived peptides that had the nucleic acid binding moiety RRRRRRRRRRRR (SEQ ID NO:109) or KKKKKKKKKKKKKKKK (SEQ ID NO: 102) covalently linked to the N-terminus, or C-terminus of each peptide during peptide synthesis. Peptides were at 2 mg/mL in water. The DOTMA/DOPE and the plant virus movement peptide solution the was diluted 1 to 1 (v/v) in water. DOMTA/DOPE/PEPTIDE solutions were added to 0.1 mL of a plasmid DNA solution (EF1Alpha eGFP plasmid) at 10 μg/mL in OptiMEM.
(§2) All solutions were at room temperature. A volume of 0.2 mL of a 10 μg/mL solution of DNA was aliquoted into each well of a non-tissue cultured treated plate. 1-6 μL of transfection reagents were added to DNA solutions respectively. The transfection reagent and DNA solution was mixed by pipetting up and down twice. Transfection complexes were formed for 10 minutes. After 10 minutes, 0.01 or 0.02 mL of the transfection complex was added to cells. HuVEC, HeLa, human adult keratinocytes, human primary adult fibroblast, and A549 cells all respectively received 0.01 mL of the transfection complex. Human skeletal muscle cells, mouse C2C12 cells, and Jurkat, cells received 0.02 mL of the transfection complex. Cells were incubated for 42 hours at 37° C. at 5% CO2. Plates were read on a fluorescent plate reader. Cells were also examined visually under a microscope to assess the extent of transfection (in terms of the percent of cells transfected) with a fluorescent microscope. Other modes of analysis, for example quantification with B-galactosidase or luciferase reports plasmids can also be used.

Another test has as its system HeLa Cells. The conditions noted are these: 1-6 μL of transfection reagents. The protocol:
as §1, §2

Another test concerns HuVec Cells. Conditions: 42 hours. The protocol: as §1, §2

Take “542 (KKKKKKKKKKKKKKKKGKWERKPIRCAS) [compound 542]”: the “Relative Fluorescence of Transfection of Human Primary Fibroblast Cells” value in test [1] (Transfection Agent 1 μl) is given as 30818 Rf; in test [1] (Transfection Agent 1.5 μl), 43609 Rf; in test [1] (Transfection Agent 2 μl), 46966 Rf; in test [1] (Transfection Agent 3 μl), 36343 Rf; in test [1] (Transfection Agent 4 μl), 33706 Rf; in test [1] (Transfection Agent 6 μl), 31787 Rf. The “Relative Fluorescence of Transfection of Hela Cells” value with HeLa Cells (2 µL transfection reagent) was 32901; with HeLa Cells (5 µL transfection reagent) it was 35631; with HeLa Cells (value column 1 of 6, head not given, 1 µL transfection reagent), 9010; in the test on HeLa Cells (value column 3 of 6, head not given, 3 µL transfection reagent), 47293; in the test on HeLa Cells (value column 4 of 6, head not given, 4 µL transfection reagent) it was 42152. Moreover, the “Relative Fluorescence of Transfection of HuVEC Cells” value in the test on HuVec Cells (Transfection Agent 1 μl) amounted to 24827 Rf; with HuVec Cells (Transfection Agent 1.5 μl), 33896 Rf; in the test with HuVec Cells (Transfection Agent 2 μl) it was 42546 Rf; with HuVec Cells (Transfection Agent 3 μl), 43231 Rf; in the test on HuVec Cells (Transfection Agent 4 μl), 35294 Rf; with HuVec Cells (Transfection Agent 6 μl), 29326 Rf.
